“Also recorded” adds a separate entry of the source.
Key:
Assay in all cases: Differential scanning fluorimetry (thermal stability vs nucleotide concentration)
Assay type in all cases: binding
[1] = biological target: T1, Src^32KΔC L255A (Mus musculus, UniProt P05480, L257A); details: Src^32KΔC L255A non-phosphorylated; DSF
T1 construct: mouse Src^85-523 (Src^32KΔC); GST (cleaved yes); made in house; host or cells: baculovirus-infected Sf9 insect cells
Source text: Figure 3 An allosteric switch triggers nucleotide exchange. (a) Hydrophobic stack conservation in Src family kinases. The table illustrates the amino acid identity at each of the three positions in the hydrophobic stack in addition to the invariant tryptophan (Trp260 in Src) for all Src family kinase members. The positions are presented according to their N- to C-terminal order in the primary sequences. Where it was not possible to unambiguously determine the identity of the amino acid contributed by the SH2-kinase variable linker (V3), the residue is denoted by a question mark. (b) Small angle X-ray scattering of Itk^32K L351A (black). The scattering curve for wild type Itk^32K (cyan) is overlaid for comparison. […] (c) Rigid body modelling of Itk^32K L351A and fit to ab initio molecular envelope. Displacement of both the SH3 and SH2 domains is required for a good fit to the experimental scattering curve. (d) Determination of the binding constants of Itk^32K L351A for nucleotides by fluorescence anisotropy. […] (e) Determination of the thermal stabilities and relative binding affinities of non-phosphorylated Src^32KΔC L255A for nucleotides by differential scanning fluorimetry. […] TEXT PRINTED IN THE PICTURE: (d) Mant-ADP: Itk^32K L351A (non-phos) Kd (μM): 21.0 ± 2.1 | (d) Mant-ATP: Itk^32K L351A (non-phos) Kd (μM): 31.7 ± 2.7 | (e) ADP: Src^32KΔC L255A (non-phos) [nuc]1/2 (μM): 310 ± 20; Src^32KΔC L255A (non-phos) Tm^max (°C): 52.9; Src^32KΔC L255A (non-phos) ΔTm^max (°C): + 6.8 | (e) ATP: Src^32KΔC L255A (non-phos) [nuc]1/2 (μM): 100 ± 10; Src^32KΔC L255A (non-phos) Tm^max (°C): 54.2; Src^32KΔC L255A (non-phos) ΔTm^max (°C): + 8.1 | (e) apo: Src^32KΔC L255A (non-phos) Tm^max (°C): 46.1
Due to limiting protein concentrations, we were unable to obtain a binding curve by fluorescence anisotropy, so we instead used thermal stability measurements to investigate its nucleotide-binding properties. Determination of accurate binding constants from thermal stability measurements requires knowledge of the enthalpy of unfolding. However, for a given protein, the enthalpy of unfolding is independent of the ligand being tested, so comparison of the concentrations of nucleotide required for half maximal stabilisation is valid.
(§1) Thermal stabilities as a function of nucleotide concentration were measured by differential scanning fluorimetry (DSF). Samples contained 0.1 mg/ml protein in 50 mM Tris pH 7.5, 150 mM NaCl, 1 mM TCEP, and 5 mM MgCl2 with ADP, ATP, or AMPPNP concentrations ranging from 0–16 mM. Samples were measured in triplicate using a BioRad iQ™5 Multicolor Real-Time PCR Detection System. For detection of phosphorylated protein, samples were diluted and 1 ng and 15 ng were loaded to SDS-PAGE for Src and Itk proteins, respectively. Phosphorylation was measured by immunoblot.

[2] = biological target: T2, Src^32K (Mus musculus, UniProt P05480)
T2 construct: mouse Src^85-535 (Src^32K); GST (cleaved yes); made in house; host or cells: baculovirus-infected Sf9 insect cells, co-expressed with human Csk
Method: as §1, with “We noted that the thermal stability of Src^32K initially decreases at low concentrations of ATP, before rising again at higher concentrations. This was reproducible and correlates with autophosphorylation of Tyr416 during the course of the assay (Supplementary Fig. 4h). Thermal” for “Thermal”

[3] = biological target: T3, Itk^32K (Homo sapiens, UniProt Q08881); details: same nucleotide concentrations, vs ATP or AMPPNP
T3 construct: Human Itk^171–620 (Itk^32K); GST (cleaved yes); made in house; host or cells: baculovirus-infected Sf9 insect cells
T3 sequence (Q08881 171-620): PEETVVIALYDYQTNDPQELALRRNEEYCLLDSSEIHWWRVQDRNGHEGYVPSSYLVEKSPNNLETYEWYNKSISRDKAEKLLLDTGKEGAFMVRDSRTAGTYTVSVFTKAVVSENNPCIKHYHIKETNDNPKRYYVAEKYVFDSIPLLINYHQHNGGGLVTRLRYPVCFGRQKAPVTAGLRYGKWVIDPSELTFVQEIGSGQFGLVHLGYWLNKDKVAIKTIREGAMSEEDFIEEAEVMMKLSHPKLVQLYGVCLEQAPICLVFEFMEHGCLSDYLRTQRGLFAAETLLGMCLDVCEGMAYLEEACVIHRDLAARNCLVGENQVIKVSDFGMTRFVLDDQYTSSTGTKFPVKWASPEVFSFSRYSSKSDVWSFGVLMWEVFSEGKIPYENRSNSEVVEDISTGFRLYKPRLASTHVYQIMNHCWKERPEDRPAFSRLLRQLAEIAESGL
Method: as §1, with “We noted that the thermal stability of Src^32K initially decreases at low concentrations of ATP, before rising again at higher concentrations. This was reproducible and correlates with autophosphorylation of Tyr416 during the course of the assay (Supplementary Fig. 4h). Thermal” for “Thermal”

Tm^max [1]: 52.9 °C | [nuc]1/2 (nucleotide concentration for half maximal stabilisation) [1]: 310 ± 20 µM
SMILES: Nc1ncnc2c1ncn2[C@@H]1O[C@H](COP(=O)(O)OP(=O)(O)O)[C@@H](O)[C@H]1O [ADP]
thermal stabilisation compared with other nucleotides ([2]; Src^32K pY416, vs ATP): higher thermal stability with ADP than ATP | thermal stabilisation compared with other nucleotides ([2]; Src^32K, same nucleotide concentrations, vs ATP or AMPPNP): to a greater extent; also recorded: higher thermal stability | thermal stabilisation compared with other nucleotides [3]: to a greater extent; also recorded: higher thermal stability

From paper PMC5727165, “A switch in nucleotide affinity governs activation of the Src and Tec family kinases” (Scientific Reports, 2017)
